Source: paper PMC9027111, “Morphing Natural Product Platensimycin via Heck, Sonogashira, and One-Pot Sonogashira/Cycloaddition Reactions to Produce Antibiotics with In Vivo Activity” (Antibiotics, 2022)
Converted amounts (≈) assume the structure as drawn.

What was measured:
[1] = Plasma protein binding by equilibrium dialysis; assay type: in vitro ADME; conditions: 37 °C; for Plasma Protein Binding Bound %: 5 μM, 6 h; for fraction unbound at 6 h, 5 μM: plasma, read-out: Plasma Protein Binding Free %
Protocol: Equilibrium dialysis was used to determine the plasma protein binding. All of the test compounds were treated in triplicate by RED Rapid Equilibrium Dialysis Device (Thermo Scientific, Waltham, MA, USA). In brief, the initial compound concentration (5 μM) in the plasma chamber was first set, followed by the addition of phosphate buffered saline (PBS) to the receiver chamber. The Equilibrium Dialysis Device was allowed to shake for 6 h in a 37 °C incubator. Then, 25 μL solution was sampled from the plasma and PBS chambers, respectively, and they were diluted with either blank PBS or plasma to achieve a 1:1 ratio of plasma: PBS for all samples. The concentrations of the tested compounds in the plasma and PBS chambers were determined by LC–MS/MS. The fraction bound was calculated as ([plasma]—[PBS])/[plasma].

[2] = Metabolic stability assay in pooled human liver microsomes; assay type: in vitro ADME; conditions: pH 7.4, 37 °C, NADPH, read-out: Half-Life in Human Hepatic Microsomes
Protocol: Each compound was incubated in duplicate with pooled human liver microsomes at 37 °C. The tested compounds were pre-incubated with pooled human liver microsomes in phosphate buffer (pH 7.4) for 5 min in a shaking water bath at 37 °C. The reaction was initiated by adding a NADPH-generating system and incubated for 0, 15, 30, 45, and 60 min. The reaction was stopped by transferring the incubation mixture to CH3CN/MeOH. Samples were then mixed and centrifuged. Supernatants were used for HPLC–MS/MS analysis. Data were calculated as percent parent compounds remaining by assuming zero-minute time point peak area ratio (analyte/IS) as 100% and dividing remaining time point peak area ratios by the zero-minute time point peak area ratio. Data were subjected to fit a first-order decay model to calculate both the slope and half-life.

MRSA 3 = assay: MIC determination (LB agar dilution), clinical MRSA strain 3; assay type: cell-based; conditions: Staphylococcus aureus, at least two replicates
Protocol: (§1) All of the tested compounds were prepared to different concentrations with methanol, and 150 μL of the respective methanol solution was used to mix with 15 mL LB (Luria–Bertani) medium with 1% agar in each Petri dish. Linezolid and PTM were used as reference compounds for comparison. In vitro bioassay for compounds was carried out using clinical strains of S. aureus, E. coli, and Klebsilla pneumoniae. The bacteria were cultivated in LB medium and incubated for 16 h at 37 °C, 250 rpm. The resulting bacteria were diluted to approximate 0.25 at OD600, which were further diluted 10_4-fold. The diluted bacteria (2 μL) were added to Petri dish containing the respective compounds. The resulting Petri dishes were incubated for 16 h at 37 °C. The determination of MIC is the concentration of Petri dishes with no visible growth of bacteria.

MRSA 4 = assay: MIC determination (LB agar dilution), clinical MRSA strain 4; assay type: cell-based; conditions: Staphylococcus aureus, at least two replicates
Protocol: as §1

MSSA 1 = assay: MIC determination (LB agar dilution), clinical MSSA strain 1; assay type: cell-based; conditions: Staphylococcus aureus, at least two replicates
Protocol: as §1

S. aureus ATCC 29213 = assay: MIC determination (LB agar dilution), S. aureus ATCC 29213; assay type: cell-based; conditions: Staphylococcus aureus, ATCC29213, at least two replicates
Protocol: as §1

MSSA 2 = assay: MIC determination (LB agar dilution), clinical MSSA strain 2; assay type: cell-based; conditions: Staphylococcus aureus, at least two replicates
Protocol: as §1

SMILES	Plasma Protein Binding Bound % [1]	fraction unbound at 6 h, 5 μM [1]	half-life [2]	MIC (MRSA 3)	MIC (MRSA 4)	MIC (MSSA 1)	MIC (S. aureus ATCC 29213)	MIC (MSSA 2)
CC12CC34C=C(c5ccc6ccc7cccc8ccc5c6c78)C(=O)C(C)(CCC(=O)Nc5c(O)ccc(C(=O)O)c5O)C3C(CC1C4)O2 (stereo not shown) [1b, 6-pyrenyl PTM, reference compound]	99.9%	0.001	1.22 h					
COC(=O)C=CC1=CC23CC4CC(OC4(C)C2)C3C(C)(CCC(=O)Nc2c(O)ccc(C(=O)O)c2O)C1=O (stereo not shown) [A1]				2 mg/L (≈ 3.81 µM)	2 mg/L (≈ 3.81 µM)	2 mg/L (≈ 3.81 µM)	2 mg/L (≈ 3.81 µM)	2 mg/L (≈ 3.81 µM)
CC12CC34C=C(C=CC(=O)OCCO)C(=O)C(C)(CCC(=O)Nc5c(O)ccc(C(=O)O)c5O)C3C(CC1C4)O2 (stereo not shown) [A2]				16 mg/L (≈ 28.8 µM)	16 mg/L (≈ 28.8 µM)	16 mg/L (≈ 28.8 µM)	16 mg/L (≈ 28.8 µM)	16 mg/L (≈ 28.8 µM)
CCCCOC(=O)C=CC1=CC23CC4CC(OC4(C)C2)C3C(C)(CCC(=O)Nc2c(O)ccc(C(=O)O)c2O)C1=O (stereo not shown) [A3]				1 mg/L (≈ 1.76 µM)	1 mg/L (≈ 1.76 µM)	1 mg/L (≈ 1.76 µM)	1 mg/L (≈ 1.76 µM)	1 mg/L (≈ 1.76 µM)
CCCCCCCCCCCCCCCCCCOC(=O)C=CC1=CC23CC4CC(OC4(C)C2)C3C(C)(CCC(=O)Nc2c(O)ccc(C(=O)O)c2O)C1=O (stereo not shown) [A5]	99.2%	0.008	1.27 h	> 64 mg/L	> 64 mg/L	> 64 mg/L	> 64 mg/L	> 64 mg/L
CC12CC34C=C(C=CC(N)=O)C(=O)C(C)(CCC(=O)Nc5c(O)ccc(C(=O)O)c5O)C3C(CC1C4)O2 (stereo not shown) [A6]				64 mg/L (≈ 125 µM)	64 mg/L (≈ 125 µM)	64 mg/L (≈ 125 µM)	64 mg/L (≈ 125 µM)	64 mg/L (≈ 125 µM)
CN(C)C(=O)C=CC1=CC23CC4CC(OC4(C)C2)C3C(C)(CCC(=O)Nc2c(O)ccc(C(=O)O)c2O)C1=O (stereo not shown) [A7]				16 mg/L (≈ 29.7 µM)	16 mg/L (≈ 29.7 µM)	16 mg/L (≈ 29.7 µM)	16 mg/L (≈ 29.7 µM)	16 mg/L (≈ 29.7 µM)
CC(C)NC(=O)C=CC1=CC23CC4CC(OC4(C)C2)C3C(C)(CCC(=O)Nc2c(O)ccc(C(=O)O)c2O)C1=O (stereo not shown) [A8]				32 mg/L (≈ 57.9 µM)	32 mg/L (≈ 57.9 µM)	32 mg/L (≈ 57.9 µM)	32 mg/L (≈ 57.9 µM)	32 mg/L (≈ 57.9 µM)
CC(C)(C)NC(=O)C=CC1=CC23CC4CC(OC4(C)C2)C3C(C)(CCC(=O)Nc2c(O)ccc(C(=O)O)c2O)C1=O (stereo not shown) [A9]				8 mg/L (≈ 14.1 µM)	8 mg/L (≈ 14.1 µM)	8 mg/L (≈ 14.1 µM)	8 mg/L (≈ 14.1 µM)	8 mg/L (≈ 14.1 µM)
C#CC1=CC23CC4CC(OC4(C)C2)C3C(C)(CCC(=O)Nc2c(O)ccc(C(=O)O)c2O)C1=O (stereo not shown) [B1]				8 mg/L (≈ 17.2 µM)	8 mg/L (≈ 17.2 µM)	8 mg/L (≈ 17.2 µM)	8 mg/L (≈ 17.2 µM)	8 mg/L (≈ 17.2 µM)
CCCCC#CC1=CC23CC4CC(OC4(C)C2)C3C(C)(CCC(=O)Nc2c(O)ccc(C(=O)O)c2O)C1=O (stereo not shown) [B2]				1 mg/L (≈ 1.92 µM)	1 mg/L (≈ 1.92 µM)	1 mg/L (≈ 1.92 µM)	1 mg/L (≈ 1.92 µM)	1 mg/L (≈ 1.92 µM)
CC(C)(C)C#CC1=CC23CC4CC(OC4(C)C2)C3C(C)(CCC(=O)Nc2c(O)ccc(C(=O)O)c2O)C1=O (stereo not shown) [B3]				1 mg/L (≈ 1.92 µM)	1 mg/L (≈ 1.92 µM)	1 mg/L (≈ 1.92 µM)	1 mg/L (≈ 1.92 µM)	1 mg/L (≈ 1.92 µM)
CC12CC34C=C(C#CC5CC5)C(=O)C(C)(CCC(=O)Nc5c(O)ccc(C(=O)O)c5O)C3C(CC1C4)O2 (stereo not shown) [B4]				1 mg/L (≈ 1.98 µM)	1 mg/L (≈ 1.98 µM)	1 mg/L (≈ 1.98 µM)	1 mg/L (≈ 1.98 µM)	1 mg/L (≈ 1.98 µM)
CCCCCC#CC1=CC23CC4CC(OC4(C)C2)C3C(C)(CCC(=O)Nc2c(O)ccc(C(=O)O)c2O)C1=O (stereo not shown) [B5]				1 mg/L (≈ 1.87 µM)	1 mg/L (≈ 1.87 µM)	1 mg/L (≈ 1.87 µM)	1 mg/L (≈ 1.87 µM)	1 mg/L (≈ 1.87 µM)
CC12CC34C=C(C#CC5(O)CCCCC5)C(=O)C(C)(CCC(=O)Nc5c(O)ccc(C(=O)O)c5O)C3C(CC1C4)O2 (stereo not shown) [B6]				4 mg/L (≈ 7.1 µM)	4 mg/L (≈ 7.1 µM)	4 mg/L (≈ 7.1 µM)	4 mg/L (≈ 7.1 µM)	4 mg/L (≈ 7.1 µM)
